Where a name gives a salt, the structure may show the parent alone.
Test system: Acinetobacter baumannii ATCC 17961
Test: Antimicrobial susceptibility testing: 90% growth inhibitory concentration (IC90) determination
Format: cell-based
Details: ATCC17961, Acinetobacter baumannii ATCC 17961, Iso-Sensitest broth, read-out: ATCC 17961 IC90
Procedure, shortened: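 Growth was followed kinetically by OD600 at 20-min intervals for 16 h at 35±2 °C, with ~5×10^5 CFU/ml in Iso-Sensitest broth. Compounds were tested as twofold dilutions (e.g. 50–0.097 μM final). The concentration giving 90% inhibition of log-phase growth was reported.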

Row | IC90 [nM] | Compound
1 | 374 | Cn1c(-c2cn(C3CC3)nc2C(F)(F)F)cnc1C(=O)Nc1ccc(C(=O)N[C@H]2[C@@H]3CN(C(=O)C4CCNCC4)C[C@@H]32)c(Cl)c1 [Example 306, N-(3-chloro-4-((exo-3-(piperidine-4-carbonyl)-3-azabicyclo[3.1.0]hexan-6-yl)carbamoyl)phenyl)-5-(1-cyclopropyl-3-(trifluoromethyl)-1H-pyrazol-4-yl)-1-methyl-1H-imidazole-2-carboxamide]
2 | 246 | Cn1c(-c2cn(C3CC3)nc2C(F)(F)F)cnc1C(=O)Nc1ccc(C(=O)NCCCCCN)c(Cl)c1 [Example 221, N-(4-((5-aminopentyl)carbamoyl)-3-chlorophenyl)-5-(1-cyclopropyl-3-(trifluoromethyl)-1H-pyrazol-4-yl)-1-methyl-1H-imidazole-2-carboxamide hydrochloride]
3 | 335 | Cn1c(-c2cn(C3CC3)nc2C(F)(F)F)cnc1C(=O)Nc1ccc(C(=O)N2CCN(C(=O)C3CCNCC3)CC2)c(Cl)c1 [Example 54, N-(3-Chloro-4-(4-(piperidine-4-carbonyl)piperazine-1-carbonyl)phenyl)-5-(1-cyclopropyl-3-(trifluoromethyl)-1H-pyrazol-4-yl)-1-methyl-1H-imidazole-2-carboxamide hydrochloride]
4 | 268 | C=C(C)Cn1cc(-c2cnc(C(=O)Nc3ccc(C(=O)N[C@H]4C[C@@H](N)C4)c(Cl)c3)n2C)c(C(F)(F)F)n1 [Example 234, rac-N-(4-(((1s,3s)-3-aminocyclobutyl)carbamoyl)-3-chlorophenyl)-1-methyl-5-(1-(2-methylallyl)-3-(trifluoromethyl)-1H-pyrazol-4-yl)-1H-imidazole-2-carboxamide hydrochloride]

Continued, compound first:

Row | Compound | IC90 [nM]
5 | Cn1c(-c2cn(C3CS(=O)(=O)C3)nc2C(F)(F)F)cnc1C(=O)Nc1ccc(C(=O)N2CCN(C(=O)C3CCNCC3)CC2)c(Cl)c1 [Example 16, N-(3-chloro-4-(4-(piperidine-4-carbonyl)piperazine-1-carbonyl)phenyl)-5-(1-(1,1-dioxidothietan-3-yl)-3-(trifluoromethyl)-1H-pyrazol-4-yl)-1-methyl-1H-imidazole-2-carboxamide] | 1360
6 | Cn1c(-c2cn(C3CC3)nc2C(F)(F)F)cnc1C(=O)Nc1ccc(C(=O)N2CCN(C(=O)CC3CCNCC3)CC2)c(Cl)c1 [Example 309, N-(3-chloro-4-(4-(2-(piperidin-4-yl)acetyl)piperazine-1-carbonyl)phenyl)-5-(1-cyclopropyl-3-(trifluoromethyl)-1H-pyrazol-4-yl)-1-methyl-1H-imidazole-2-carboxamide hydrochloride] | 378
7 | CCn1cc(-c2cnc(C(=O)Nc3ccc(C(=O)N4CCN(C(=O)N[C@H]5C[C@@H](N)C5)CC4)c(Cl)c3)n2C)c(C(F)(F)F)n1 [Example 296, N-(3-aminocyclobutyl)-4-[2-chloro-4-[[5-[1-ethyl-3-(trifluoromethyl)pyrazol-4-yl]-1-methylimidazole-2-carbonyl]amino]benzoyl]pipera-zine-1-carboxamide;formic acid] | 364
8 | Cn1c(-c2cn(CCF)nc2C(F)(F)F)cnc1C(=O)Nc1ccc(C(=O)N2CCN(C(=O)[C@H]3C[C@H](N)C3)CC2)c(Cl)c1 [Example 298, N-[4-[4-(3-aminocyclobutanecarbonyl)piper-azine-1-carbonyl]-3-chlorophenyl]-5-[1-(2-fluoroethyl)-3-(trifluoromethyl)pyrazol-4-yl]-1-methylimidazole-2-carboxamide;trihydrochloride] | 365
9 | Cn1c(-c2cn(CC#N)nc2C(F)(F)F)cnc1C(=O)Nc1ccc(C(=O)N[C@H]2C[C@H](NC(=O)[C@@H]3CCNC3)C2)c(Cl)c1 [Example 315, N-[3-chloro-4-[[3-[[(3R)-pyrrolidine-3-carbonyl]amino]cyclobutyl]car-bamoyl]phenyl]-5-[1-(cyanomethyl)-3-(trifluoromethyl)pyrazol-4-yl]-1-methylimidazole-2-carboxamide;formic acid] | 390

Reference: US11390604B2 (Hoffmann-La Roche Inc., priority 2019, dated 2022)
